The source of these data is patent US5631293A, “Preparation of amino acid-substituted benzoylguanidines as diagnostic agents” (priority 1994, dated 1997).

Structures are written as SMILES. Counter-ions that a name gives are not always drawn.

For data set [1], the system named is artificially induced ventricular fibrillation on rat hearts. Particulars: isolated rat hearts, cited from earlier work.
Data set [2] concerns disturbances in cardiac rhythm. To be noted: Circulation 79, 1257-63 (1989); cited from earlier work.
Data set [3] addresses T1, Na+/H^+ exchanger of rabbit erythrocytes (Oryctolagus cuniculus, UniProt P23791).
T1 construct: determine the Na^+ influx into the erythrocytes via Na^+ /H^+ exchange by flame photometry; endogenous in cells; host or cells: erythrocytes in blood from the ear arteries of cholesterol-fed White New Zealand rabbits (Ivanovas)
Put plainly: Inhibition of the Na+/H+ exchanger of rabbit erythrocytes (amiloride-sensitive Na+ influx, flame photometry). Particulars: cholesterol diet 2% six weeks, pH 7.4, 37° C. In kind it is cell-based, rabbit (White New Zealand). The source says:
Inhibition of the Na+/H^+ exchanger of rabbit erythrocytes
White New Zealand rabbits (Ivanovas) were given a standard diet with 2% of cholesterol for six weeks in order to activate the Na^+ /H^+ exchange and in this way to be able to determine the Na^+ influx into the erythrocytes via Na^+ /H^+ exchange by flame photometry. The blood was removed from the ear arteries and rendered noncoagulable by 25 IU of potassium-heparin. A portion of each sample was used for duplicate determination of the hematocrit by centrifugation. Aliquots of in each case 100 μl were used for measurement of the starting Na^+ content of the erythrocytes.
To determine the amiloride-sensitive sodium influx, 100 μl of each blood sample were incubated in 5 ml portions each of a hyperosmolar salt/sucrose medium (mmol/l: 140 NaCl, 3 KCl, 150 sucrose, 0.1 ouabain, 20 tris-hydroxymethylaminomethane) at pH 7.4 and 37° C. The erythrocytes were then washed three times with ice-cold MgCl2 /ouabain solution (mmol/l: 112 MgCl2, 0.1 ouabain) and hemolyzed in 2.0 ml of distilled water. The intracellular sodium content was determined by flame photometry.
The Na^+ net influx was calculated from the difference between the starting sodium values and the sodium content of the erythrocytes after incubation. The sodium influx which can be inhibited by amiloride resulted from the difference between the sodium content of the erythrocytes after incubation with and without 3×10^-4 mol/l of amiloride. This procedure was also followed with compounds according to the invention.

T1 sequence (P23791 whole entry): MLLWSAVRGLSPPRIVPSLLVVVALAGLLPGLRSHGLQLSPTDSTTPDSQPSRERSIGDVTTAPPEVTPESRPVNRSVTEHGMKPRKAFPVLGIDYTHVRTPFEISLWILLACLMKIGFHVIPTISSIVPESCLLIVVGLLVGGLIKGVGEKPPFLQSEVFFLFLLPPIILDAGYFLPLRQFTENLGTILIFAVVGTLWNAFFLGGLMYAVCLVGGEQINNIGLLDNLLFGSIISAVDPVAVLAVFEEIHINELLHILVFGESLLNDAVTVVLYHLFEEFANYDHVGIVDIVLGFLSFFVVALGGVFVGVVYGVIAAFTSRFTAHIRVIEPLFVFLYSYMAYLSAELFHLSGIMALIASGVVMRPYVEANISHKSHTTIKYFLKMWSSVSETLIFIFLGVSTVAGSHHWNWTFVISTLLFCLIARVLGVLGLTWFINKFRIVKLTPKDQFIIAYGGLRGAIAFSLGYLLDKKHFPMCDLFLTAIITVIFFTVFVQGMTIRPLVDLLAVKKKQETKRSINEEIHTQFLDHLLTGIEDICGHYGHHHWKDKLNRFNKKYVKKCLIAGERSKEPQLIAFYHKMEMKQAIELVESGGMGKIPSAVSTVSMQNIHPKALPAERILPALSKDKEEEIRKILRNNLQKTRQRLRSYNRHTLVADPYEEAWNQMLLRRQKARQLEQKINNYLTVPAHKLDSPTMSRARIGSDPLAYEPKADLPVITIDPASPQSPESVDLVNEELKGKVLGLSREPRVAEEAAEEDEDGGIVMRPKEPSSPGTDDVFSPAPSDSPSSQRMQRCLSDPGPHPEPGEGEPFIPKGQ

Turning to `NC(N)=NC(=O)c1nc(Cl)c(N)nc1N` [amiloride], in data set [1], the “suppression of artificially induced ventricular fibrillation” value is on record as “suppressed completely”. Further, in data set [2], the antiarrhythmic effect entry is reported as “only weak”; the “side-effects accompanying the antiarrhythmic effect” value was “antihypertensive and saluretic action”. In the case of `CCN(c1nc(N)c(C(=O)N=C(N)N)nc1Cl)C(C)C` [ethylisopropylamiloride], the “potency against ventricular fibrillation compared with amiloride” value in data set [1] (relative to amiloride) was “even more potent than amiloride”. What is called IC50 is the point on the concentration scale where inhibition reaches its midpoint. A lower IC50 goes with inhibition by little substance. `CS(=O)(=O)c1cc(C(=O)N=C(N)N)ccc1Oc1ccc(C[C@H](N)C(=O)O)cc1` [Example 2, 4-[(4-Guanidinocarbonyl-2-methylsulfonyl)phenoxy]phenylalanine]: the IC50 in data set [3] was determined as 1000 nM. In data set [3], `NC(N)=NC(=O)c1ccc(Oc2ccc(CC(N)C(=O)O)cc2)c(C(F)(F)F)c1` (stereo not shown) [Example 4, 4-[(4-Guanidinocarbonyl-2-trifluoromethyl)phenoxy]phenylalanine, dihydrochloride] showed an IC50 of 26 nM. Still for that read-out and setting: then `CC(C)(C)OC(=O)N[C@@H](Cc1ccc(Oc2ccc(C(=O)N=C(N)N)cc2S(C)(=O)=O)cc1)C(=O)O` [Example 1, N-tert-Butoxycarbonyl-4-[(4-guanidinocarbonyl-2-methylsulfonyl)phenoxy]-phenylalanine], with 430 nM.
